pIC50: −log10 of the molar value.
What was measured:
[1] = test system: KRAS-independent colon cancer cells; experiment: Apoptosis by PARP and caspase-3 cleavage; type: cell-based, human; settings: except at very high doses
Description: (B) Effects of TAK1 inhibition on apoptosis and signaling in a representative panel of KRAS-independent and KRAS-dependent cell lines, 24 h after treatment. PARP and caspase-3 cleavage are shown as indicators of apoptosis, and AMPK threonine 172 (T172) phosphorylation is shown as a downstream indicator of TAK1 signaling activity. GAPDH serves as a gel loading control.
Pharmacologic TAK1 inhibition triggered apoptosis in KRAS-dependent colon cancer cells, as measured by PARP and caspase-3 cleavage (FIG. 3B). […] Thus, low concentrations of 5Z-7-oxozeaenol, in the range of 0.625 to 1.25 μM, promote apoptosis selectively in KRAS-dependent colon cancer cells.

MCF10A = experiment: Sensitivity of non-transformed epithelial cell line; type: cell-based
Description: (§1) (A) 5Z-7-oxozeaenol IC50 values for colorectal cancer cell lines of various genotypes as well as 2 “normal” epithelial cell lines, MCF10A and MDCK (light gray bars). Data are represented as the mean of 3 independent experiments+/−SEM.
(§2) To determine if sensitivity to TAK1 inhibition is specific to colon cancer-derived cell lines, sensitivity to 5Z-7-oxozeaenol was assessed in 5 KRAS mutant pancreatic ductal adenocarcinoma (PDAC) and 4 non-small cell lung cancer (NSCLC) cells, all of which are APC wild-type (FIG. 9B).

MDCK = experiment: as above; type: cell-based
Description: as §1, §2

[2] = test system: non-small cell lung cancer (NSCLC) cells; experiment: Sensitivity of KRAS mutant NSCLC cell lines; type: cell-based; settings: 4 NSCLC cell lines, APC wild-type
Description: (B) 5Z-7-oxozeaenol IC50 values for KRAS mutant PDAC and NSCLC cell lines.
as §2

[3] = test system: HT29 vector control cells; experiment: Sensitivity of HT29 vector control cells; type: cell-based, human
Description: (E) Introduction of a V5-tagged constitutively activated (CA) mutant of the BMP receptor, BMPR1A (Q233D) or control vector in HT29 cells and effects on 5Z-7-oxozeaenol sensitivity in terms of IC50 values.
To determine whether TAK1-independent cells could be driven toward TAK1 dependency by enhanced KRAS/Wnt signaling, a series of reconstitution experiments was performed. HT29, SW620 or SKCO1 cells were infected with recombinant lentiviruses encoding either BMPR1A-CA and CTNNB1-CA or vector control (containing the ccDB gene). For BMPR1A-CA stable expression, cells were selected in 5 μg/mlBlasticidin for 7 days and pooled clones were established. Stable expression was verified using the V5 epitope tag on the BMPR1A transgene product. For CTNNB1-CA, the pWPI recombinant lentiviruses encode GFP driven by IRES. Thus, stable cell clones were obtaining by FACS live cell sorting to obtain the top 10% of GFP expressing cells. The SW620-CTNNB1-CA stable cell clones were passaged 1:5 every 2 days and assayed for KRAS dependency after the fifth passage.
To further define the role of BMP signaling in TAK1 dependency, a constitutively-activated (CA) variant (Q233D) of BMPR1A (Zou et al., 1997) was ectopically expressed in HT29 cells. […] This was accompanied by dose-dependent decreases in Axin 2 and phosphorylated Smad2 levels. […]

[4] = test system: TOP-FLASH reporter in YAPC cells; experiment: TOP-FLASH reporter in YAPC PDAC cells; type: cell-based; settings: YAPC cells, simultaneous treatment with BIO
Excerpt: (E) TOP-FLASH reporter activity in KRAS mutant PDAC cell lines following inhibition of GSK-3 kinase with increasing concentrations of the small molecule inhibitor BIO. PANC-1 are KRAS-independent cells and YAPC are KRAS-dependent cells. Luminescence counts (photons/sec) are plotted on the y-axis. Data are representative of three independent experiments+/−SEM.
(F) TOP-FLASH reporter dose-response relationships in PANC-1 and YAPC cells following combined treatment with GSK-3 and TAK1 inhibitors (BIO and 5Z-7-Oxozeaenok respectively). Luminescence counts (photons/sec) are plotted on the y-axis. Data are represented as the means of triplicates+/−SEM.
To further test the role of Wnt signaling in this context, experiments were performed using two KRAS mutant pancreatic cancer (PDAC) cell lines, PANC-1 and YAPC, which are APC wild-type. PANC-1 cells are KRAS-independent, whereas YAPC cells are KRAS-dependent, a distinction that has been linked to increased KRAS signaling in YAPC cells (Singh et al., 2009). […] In contrast, PANC-1 cells undergo stronger induction of TOP-FLASH activity with combined GSK-3 and TAK1 inhibition (FIG. 11F, […]). […] Finally, a constitutively-activated mutant of β-catenin (CTNNB1-CA) containing S33Y and S45A missense mutations was introduced into KRAS-dependent SW620 cells. This mutant caused partial losses in both KRAS and TAK1 dependencies (FIGS. 13A-C). […]

COc1cc(O)c2c(c1)/C=C/C[C@H](O)[C@H](O)C(=O)/C=C\C[C@H](C)OC2=O [5Z-7-oxozeaenol]
caspase-3 or PARP cleavage [1]: little or no
pIC50 (MCF10A): 5.26
pIC50 (MDCK): 4.66
sensitivity to 5Z-7-oxozeaenol [2]: largely refractory
pIC50 [3]: 5.11
effect on BIO-mediated TOP-FLASH induction [4]: abrogates the BIO-mediated TOP-FLASH induction
